pIC50: −log10 of the molar value. Bridge positions count the residues as written; N and C are the ends. Ends that are not written are not given here. Peptide text beside a SMILES is read from it. * marks the point of attachment. Stearoyl = CCCCCCCCCCCCCCCCCC(=O)*

This note sets out measurements from article PMC6686047, “Efficient Inhibition of Human Papillomavirus Infection by L2 Minor Capsid-Derived Lipopeptide” (mBio, 2019).

In the first assay the test system is HPV-Lucia (HPV16 pseudovirus carrying Lucia). To be noted: 4 h.
Molecule “ASATQLYKTCKQAGTCPPDIIPKVEGKTIADQILQYGSMGVFF (disulfide 10-16) [13-55-no st]” showed a pIC50 of less than 6.00. The same measure, in the same setting: the value for “ASATQLYKTCKQAGTCPPDIIPKVEGKTIADQILQYGSMGVFFK(Stearoyl) (disulfide 10-16) [13-55st]” was 7.00.

`CCCCCCCCCCCCCCCCCC(=O)NCCCC[C@H](NC(=O)[C@H](CO)NC(=O)CNC(=O)[C@H](Cc1ccc(O)cc1)NC(=O)[C@H](CCC(N)=O)NC(=O)[C@H](CC(C)C)NC(=O)[C@@H](NC(=O)[C@H](CCC(N)=O)NC(=O)[C@H](CC(=O)O)NC(=O)[C@H](C)NC(=O)[C@@H](NC(=O)[C@@H](NC(=O)[C@H](CCCCN)NC(=O)CNC(=O)[C@H](CCC(=O)O)NC(=O)[C@@H](NC(=O)[C@H](CCCCN)NC(=O)[C@@H]1CCCN1C(=O)[C@@H](NC(=O)[C@@H](NC(=O)[C@H](CC(=O)O)NC(=O)[C@@H]1CCCN1C(=O)[C@@H]1CCCN1C(=O)[C@@H]1CSSC[C@H](NC(=O)[C@@H](NC(=O)[C@H](CCCCN)NC(=O)[C@H](Cc2ccc(O)cc2)NC(=O)[C@H](CC(C)C)NC(=O)[C@H](CCC(N)=O)NC(=O)[C@@H](NC(=O)[C@H](C)NC(=O)[C@H](CO)NC(=O)[C@H](C)N)[C@@H](C)O)[C@@H](C)O)C(=O)N[C@@H](CCCCN)C(=O)N[C@@H](CCC(N)=O)C(=O)N[C@@H](C)C(=O)NCC(=O)N[C@@H]([C@@H](C)O)C(=O)N1)[C@@H](C)CC)[C@@H](C)CC)C(C)C)[C@@H](C)O)[C@@H](C)CC)[C@@H](C)CC)C(=O)O` [13-50st] (H-ASATQLYKTCKQAGTCPPDIIPKVEGKTIADQILQYGSK(Stearoyl)-OH; disulfide 10-16) gave a negative logarithm of the IC50 (pIC50) of 7.52. `CCCCCCCCCCCCCCCCCC(=O)NCCCC[C@H](NC(=O)[C@H](CO)NC(=O)CNC(=O)[C@H](Cc1ccc(O)cc1)NC(=O)[C@H](CCC(N)=O)NC(=O)[C@H](CC(C)C)NC(=O)[C@@H](NC(=O)[C@H](CCC(N)=O)NC(=O)[C@H](CCCCN)NC(=O)[C@H](C)NC(=O)[C@@H](NC(=O)[C@@H](NC(=O)[C@H](CCCCN)NC(=O)CNC(=O)[C@H](CCC(=O)O)NC(=O)[C@@H](NC(=O)[C@H](CCCCN)NC(=O)[C@@H]1CCCN1C(=O)[C@@H](NC(=O)[C@@H](NC(=O)[C@H](CC(=O)O)NC(=O)[C@@H]1CCCN1C(=O)[C@@H]1CCCN1C(=O)[C@@H]1CSSC[C@H](NC(=O)[C@@H](NC(=O)[C@H](CCCCN)NC(=O)[C@H](Cc2ccc(O)cc2)NC(=O)[C@H](CC(C)C)NC(=O)[C@H](CCC(N)=O)NC(=O)[C@@H](NC(=O)[C@H](C)NC(=O)[C@H](CO)NC(=O)[C@H](C)N)[C@@H](C)O)[C@@H](C)O)C(=O)N[C@@H](CCCCN)C(=O)N[C@@H](CCC(N)=O)C(=O)N[C@@H](C)C(=O)NCC(=O)N[C@@H]([C@@H](C)O)C(=O)N1)[C@@H](C)CC)[C@@H](C)CC)C(C)C)[C@@H](C)O)[C@@H](C)CC)[C@@H](C)CC)C(=O)O` [13-50st-D43K] (H-ASATQLYKTCKQAGTCPPDIIPKVEGKTIAKQILQYGSK(Stearoyl)-OH; disulfide 10-16) had a negative logarithm of the IC50 (pIC50) of 6.70.

Staying with this assay, now noted: […]; CHO-K1 cells, HPV-Lucia; Lucia activity at 36 hpi; potency compared with WT peptide (13-48, 100%) used at four concentrations.
With “pZeo5-tSA-Furin-13-44GT-CVIM: HPV16 L2N13-48 lipopeptide with deletion of ILQY”, the “Relative anti-HPV activity” value is less than 0.8%. On the same count and under the same terms, in the case of “pZeo5-tSA-Furin-13-46GT-CVIM: HPV16 L2N lipopeptide with L2N13-46” it was 200%; in that of “pZeo5-tSA-Furin-13-48GT-CVIM-D31K: HPV16 L2N13-48 lipopeptide with D31K”, 20%; in that of “pZeo5-tSA-Furin-13-48GT-CVIM-QQKK: HPV16 L2N13-48 lipopeptide with double Q44K and Q47K”, 150%. For “pZeo5-tSA-Furin-13-48GT-CVIM-d42: HPV16 L2N13-48 lipopeptide with deletion of A42 (ASATQLYKTCKQAGTCPPDIIPKVEGKTIEQILQY; not fully specified (C-terminus); cysteine pairing not given here; also: CVIM isoprenylation motif lipopeptide; UniProt P03107 13-48, looked up, variant A42*)”, the “Relative anti-HPV activity” value is less than 1%.

As a reminder, the pIC50 is −log10 of the IC50, conventionally taken in molar units. A lower pIC50 goes with a high IC50.
